# Results: US9896659B2, “Methods, kits, and compositions for stem cell self-renewal” (STOWERS INSTITUTE FOR MEDICAL RESEARCH, priority 2011, dated 2018)
# What was measured:
# [1] = test system: NSG recipients; experiment: Repopulation of NSG recipients by cultured human UCB cells; assay type: in vivo; settings: STL media + 15 nM Decitabine, brief exposure; 12 weeks post-secondary transplant
# Method: 600 HSCs (lineage negative, CD34^+, CD38^− cells) were sorted from human UCB and transplanted into sub-lethally irradiated (3.25 Gy) NSG recipients or cultured for 2 weeks in STL media prior to transplantation. MNCs containing 600 HSCs were also cultured equivalently and transplanted. The uncultured MNC group is not shown due to morbidity of transplant recipients.
# MNCs were isolated from human UCB and cultured in STL media or STL media with the DNA methyltransferase inhibitor (DNMTi), Decitabine, added at the concentration of 15 nM. DNMTi was prepared fresh in DMSO and added 12 hours after the start of the culture. Media containing Decitabine was replaced with freshly prepared media every 24 hours two more times. 72 hours after adding Decitabine initially, Decitabine was removed from the culture.
# For the transplant experiments, MNCs isolated from human UCB were cultured in media activating the PI3K/Akt pathway (ST media), ST media with StemRegenin1 (SR1), media activating both the PI3K/Akt and Wnt/β-catenin pathways (STL media), or STL media+DNMTi for 14 days. The cultured progeny of 2×10^5 MNCs per recipient were transplanted into sub-lethally irradiated (3.25 Gy) NSG recipients. […] 12 weeks post-secondary transplant, human donor cells repopulation was determined (FIG. 36B).
# [2] = test system: Lin^−, CD34^+, CD38^− cells; experiment: Long-term ex vivo culture of human umbilical cord blood MNCs, Lin^− CD34^+ CD38^− cells by flow cytometry; assay type: cell-based; settings: 6 weeks culture in STL media; 500 nM 5-Aza-2′-deoxycytidine or 1 μM SR1; relative to STL base media
# Method: Cells were cultured in STL media, which consists of the following: StemSpan SFEM media (Stem Cell Technologies, Vancouver, Canada) supplemented with 10 μg/ml heparin (Sigma, St. Louis, Mo.), 0.5× Penicillin/Streptomycin (Sigma, St. Louis, Mo.), 10 ng/ml recombinant human (rh) SCF, 20 ng/ml rh-Tpo (Biovision, Inc., Mountain View, Calif.), and 2 mM lithium chloride (LiCl).
# Mononuclear cells (MNCs) were isolated from human umbilical cord blood (UCB) and cultured in STL media (activating both Wnt/β-catenin and PI3K/Akt signaling), STL+StemRegenin1 (SR1), or STL+DNMT inhibitor (DNMTi) and analyzed by flow cytometry. […] 1 μM SR1 (Cellagen Technologies, San Diego, Calif.) or 500 nM of DNMTi (5-Aza-2′-deoxycytidine, A3656, Sigma, St. Louis, Mo.) was added where indicated. DNMTi was prepared fresh in DMSO and added from the start of the culture. 24 hours later, about 75% of media was changed using fresh DNMT inhibitor. 60 hours after culture began, no additional DNMT inhibitor was added during media changes.
# [3] = test system: LSK Flk2^− cells; experiment: 10-day culture of bone marrow MNCs with PI3K inhibitor, CHIR99021 or without insulin, expansion of LSK Flk2^− cells; assay type: cell-based, mouse
# [4] = test system: lethally irradiated (10 Gy) CD45.1^+ recipient mice; experiment: Transplantation of cultured sorted LSK Flk2^− cells into lethally irradiated recipients, donor engraftment; assay type: in vivo, mouse; settings: 28-day cultures, 1000 re-sorted LSK Flk2^− cells + 2×10^5 competitor cells; peripheral blood 4 weeks post-transplant
# From the text: Cells were harvested from the wells prior to transplantation by pipetting up and down several times before transferring to a fresh tube. Residual was then collected by adding more media and repeating. Cells were washed in DMEM (Invitrogen, Cat. No. 31053) without phenol red and added to the appropriate number of whole bone marrow rescue cells from a congenic donor (for 200,000 rescue cells+1,000 re-sorted LSK Flk2^− cells (FIGS. 3F-H) or the non-adherent product of 10 days culture of 100 LSK Flk2^− cultured cells (FIGS. 3I-K) per mouse as indicated). […]
# Repopulation was measured at 4 weeks post-transplant by collection of peripheral blood, red blood cell lysis, and staining of CD45.1 (recipient) compared to CD45.2 (donor) engraftment using antibodies purchased from eBiosciences (FITC conjugated CD45.2 (Cat. No. 11-0454-85) and PE-Cy5 conjugated CD45.1 (Cat. No. 15-0453-82)). […] Multi-lineage reconstitution was determined by CD3, B220 (for lymphoid) and Gr1, Mac-1 (for myeloid), as described above.
# Cells cultured for 28 days in (1) media, (2) media+BpV(pic), (3) media+CHIR99021 and (4) media+CHIR99021 (1 μM)+BpV(pic) (200 nM) were re-sorted for LSK Flk2^− cells. […] At 4 weeks post-transplant, peripheral blood was analyzed for donor (FIG. 3G) and multi-lineage (FIG. 3H) engraftment. […]
# [5] = test system: LSK Flk2^− cells; experiment: Ex vivo culture of sorted LSK Flk2^− cells with GSK-3β and PTEN inhibitors, expansion by FACS; assay type: cell-based, mouse
# Method: LSK or LSK Flk2^− cells were sorted into 96-well U-bottom tissue culture plates at 100 cells/well with 200 μl media/well. Cells were incubated at 37° C., 5% O2, 5% CO2 (balance N2) for the indicated number of days. One-half total volume of media (see Table 1, below for the base media) was carefully pipetted from the top and replaced with fresh media every other day.
# One hundred LSK Flk2^− cells were sorted from wild-type (C57Bl/6) mice and cultured in (1) media, (2) media+1 μM CHIR99021 (a GSK-3β inhibitor, a gift from Dr. Sheng Ding), (3) media+200 nM Dipotassium Bis-peroxo(picolinato)oxovanadate (BpV(pic), a PTEN inhibitor, available from Calbiochem, Cat. No. 203705), (4) media+1 μM CHIR99021+200 nM BpV(pic), (5) media+200 nM Shikonin (also a PTEN inhibitor, available from Calbiochem, Cat. No. 565850), and (6) media+200 nM Shikonin+1 μM CHIR99021. (FIGS. 3B-C). Cells were cultured as described above. Cells were examined at 17 days of culture (FIG. 3B, original magnification 100×) and 23 days (FIG. 3C, original magnification 40×).
# LSK Flk2^− cells at 28 days culture in the indicated media conditions were examined (FIG. 3D, original magnification 200×).
# FACS analysis of 28 day LSK Flk2^− cells cultured in media+BpV(pic)+CHIR99021 (FIG. 3E) was performed. Cells were pre-gated on live, lineage negative cells.
# Fold expansion of LSK Flk2^− cells after 28 days culture in (1) media, (2) media+BpV(pic), (3) media+CHIR99021, and (4) media+CHIR99021+BpV(pic) were analyzed.
# Cells cultured for 9 days in (1) media, (2) media+BpV(pic) (200 nM), (3) media+CHIR99021 (100 nM), and (4) media+CHIR99021 (100 nM)+BpV(pic) (200 nM) were re-sorted for LSK Flk2^− cells, and fold expansion of LSK Flk2^− cells after 9 days culture in the indicated conditions was determined (FIG. 3I).
# FACS analysis was performed on 9 day LSK Flk2^− cells cultured in media+BpV(pic) (200 nM)+CHIR99021 (100 nM) (FIG. 3J). Cells were pre-gated on live, lineage negative cells.
# [6] = test system: LSK Flk2^− cells; experiment: 14-day ex vivo expansion of bone marrow MNCs in ST media with or without GSK3β inhibitor, FACS; assay type: cell-based, mouse; settings: Tpo or SCF alone; data not shown
molecule,measurement,setting,value
"Nc1ncn([C@H]2C[C@H](O)[C@@H](CO)O2)c(=O)n1 [Decitabine, 5-Aza-2′-deoxycytidine]","Expansion of functional, primitive human HSCs in serial transplant recipients",[1],further enhanced
same,Human UCB-derived HSC expansion in long-term ex vivo culture,[2],human UCB-derived HSC expansion is enhanced
Cn1c(=O)n(-c2ccc(C(C)(C)C#N)cc2)c2c3cc(-c4cnc5ccccc5c4)ccc3ncc21 [NVP-BEZ235],Effect on the ability of CHIR99021 to enhance expansion,[3]; 10 days culture with 250 nM CHIR99021 plus PI3K inhibitor,ability of CHIR99021 to enhance expansion was negated by PI3K inhibition
same,Expansion of LSK Flk2^− cells,"[3]; 10 days culture, 250 nM CHIR99021, NVP-BEZ235 at indicated concentrations",decreased the ability of LSK Flk2^− cells to expand in a dose-dependent manner
CC(C)n1cnc2c(NCCc3ccc(O)cc3)nc(-c3csc4ccccc34)nc21 [SR1],Human UCB-derived HSC expansion in long-term ex vivo culture,[2],did not enhance overall HSC expansion in long-term cultures
Dipotassium Bis-peroxo(picolinato)oxovanadate [BpV(pic)],Mice showing >1% engraftment,[4],0/10
same,Expansion of LSK cells compared to control (photographs),"[5]; 17 and 23 days culture, 1 μM CHIR99021, 200 nM BpV(pic)",greater expansion of LSK cells
same,Expansion of LSK Flk2^− cells compared to media without inhibitor,[5]; 28 days culture,significant expansion
"SCF: recombinant Stem Cell Factor, cytokine",HSC expansion with a single cytokine alone,[6],could not expand HSCs in culture
"Tpo: recombinant Thrombopoietin, cytokine",HSC expansion with a single cytokine alone,[6],could not expand HSCs in culture
"insulin: recombinant human insulin in StemSpan media, a major stimulator of the PI3K/Akt pathway",Dependence of phenotypic HSC expansion on medium component,"[3]; ST media with or without insulin, 10 days",expansion of phenotypic HSCs is dependent on insulin
